Holding throughout (experiment): KinomeScan kinase panel, single concentration 10 µM
Format in all cases: binding

Assay [1] deals with T1, KinomeScan kinase panel (Homo sapiens, UniProt O15075).
T1 construct: purchased DiscoveRx (KinomeScan)
The note with it: DCAMKL1, 10 µM.

Assay [2] has as its target T2, KinomeScan kinase panel (Homo sapiens, UniProt O75116).
T2 construct: purchased DiscoveRx (KinomeScan)
The note with it: read-out: score (%).

Assay [3] deals with T3, KinomeScan kinase panel (Homo sapiens, UniProt P06213).
T3 construct: purchased DiscoveRx (KinomeScan)
The note with it: INSR, 10 µM; read-out: score (%).

Assay [4] concerns the target T4, KinomeScan kinase panel (Homo sapiens, UniProt P07948).
T4 construct: purchased DiscoveRx (KinomeScan)
The note with it: LYN, 10 µM; read-out: score (%).

Assay [5] addresses T5, KinomeScan kinase panel (Homo sapiens, UniProt P19784).
T5 construct: purchased DiscoveRx (KinomeScan)
The note with it: CSNK2A2, 10 µM; read-out: score (%).

In assay [6] the target is T6, KinomeScan kinase panel (Homo sapiens, UniProt P21709).
T6 construct: purchased DiscoveRx (KinomeScan)
T6 sequence (P21709 26-976): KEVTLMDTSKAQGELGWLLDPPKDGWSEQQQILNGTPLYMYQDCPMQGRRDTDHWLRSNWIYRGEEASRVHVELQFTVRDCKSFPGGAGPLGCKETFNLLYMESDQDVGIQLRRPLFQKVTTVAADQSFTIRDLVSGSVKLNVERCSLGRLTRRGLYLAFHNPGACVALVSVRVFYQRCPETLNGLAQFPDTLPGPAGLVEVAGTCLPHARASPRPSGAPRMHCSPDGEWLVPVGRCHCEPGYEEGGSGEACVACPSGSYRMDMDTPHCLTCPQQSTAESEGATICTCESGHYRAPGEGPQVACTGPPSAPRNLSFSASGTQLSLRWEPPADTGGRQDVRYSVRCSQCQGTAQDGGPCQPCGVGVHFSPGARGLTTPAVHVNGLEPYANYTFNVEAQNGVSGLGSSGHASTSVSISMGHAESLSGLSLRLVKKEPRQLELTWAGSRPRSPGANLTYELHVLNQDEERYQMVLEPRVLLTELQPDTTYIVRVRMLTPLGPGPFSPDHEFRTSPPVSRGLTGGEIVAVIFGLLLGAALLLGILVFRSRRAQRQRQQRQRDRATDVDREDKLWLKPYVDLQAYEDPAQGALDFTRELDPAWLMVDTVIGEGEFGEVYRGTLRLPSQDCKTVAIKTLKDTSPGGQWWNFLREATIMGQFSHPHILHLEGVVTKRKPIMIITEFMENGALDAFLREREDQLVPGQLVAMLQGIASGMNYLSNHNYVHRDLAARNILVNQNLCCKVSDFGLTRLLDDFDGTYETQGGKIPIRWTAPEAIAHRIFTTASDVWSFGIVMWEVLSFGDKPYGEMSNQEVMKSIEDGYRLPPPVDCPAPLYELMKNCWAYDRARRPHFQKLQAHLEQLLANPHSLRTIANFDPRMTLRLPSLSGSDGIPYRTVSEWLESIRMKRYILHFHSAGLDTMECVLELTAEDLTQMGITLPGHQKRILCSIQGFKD
The note with it: EPHA1, 10 µM; read-out: score (%).

Assay [7] concerns the target T7, KinomeScan kinase panel (Homo sapiens, UniProt P29376).
T7 construct: purchased DiscoveRx (KinomeScan)
The note with it: LTK, 10 µM; read-out: score (%).

Assay [8] concerns the target T8, KinomeScan kinase panel (Homo sapiens, UniProt P33981).
T8 construct: purchased DiscoveRx (KinomeScan)
T8 sequence (P33981 1-857): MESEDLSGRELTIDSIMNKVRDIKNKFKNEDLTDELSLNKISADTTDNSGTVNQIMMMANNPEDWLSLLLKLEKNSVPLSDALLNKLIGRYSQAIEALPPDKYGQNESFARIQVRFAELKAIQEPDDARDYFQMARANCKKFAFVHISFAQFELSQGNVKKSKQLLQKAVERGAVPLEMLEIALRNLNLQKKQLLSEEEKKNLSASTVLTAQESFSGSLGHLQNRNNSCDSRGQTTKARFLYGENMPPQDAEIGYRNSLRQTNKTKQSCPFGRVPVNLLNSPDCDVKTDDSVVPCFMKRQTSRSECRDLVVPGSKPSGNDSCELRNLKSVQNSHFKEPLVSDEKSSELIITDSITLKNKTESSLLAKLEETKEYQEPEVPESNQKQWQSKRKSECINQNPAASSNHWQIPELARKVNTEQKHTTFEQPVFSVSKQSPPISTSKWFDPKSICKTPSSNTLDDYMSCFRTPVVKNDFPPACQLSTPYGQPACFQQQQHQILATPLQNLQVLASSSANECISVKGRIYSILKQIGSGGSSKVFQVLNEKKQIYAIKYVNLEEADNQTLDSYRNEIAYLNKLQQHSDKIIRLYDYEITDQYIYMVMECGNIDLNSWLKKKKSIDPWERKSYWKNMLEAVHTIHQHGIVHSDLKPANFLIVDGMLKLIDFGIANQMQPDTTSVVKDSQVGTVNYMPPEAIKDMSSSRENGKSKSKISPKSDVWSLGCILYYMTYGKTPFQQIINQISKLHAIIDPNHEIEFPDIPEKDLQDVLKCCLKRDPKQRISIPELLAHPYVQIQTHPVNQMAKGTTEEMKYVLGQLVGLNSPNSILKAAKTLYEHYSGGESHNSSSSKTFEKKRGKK
The note with it: kinase TTK; 10 µM; read-out: score (%).

The target in assay [9] is T9, KinomeScan kinase panel (Homo sapiens, UniProt P49759).
T9 construct: purchased DiscoveRx (KinomeScan)
The note with it: CLK1, 10 µM; read-out: score (%).

Assay [10] concerns the target T10, KinomeScan kinase panel (Homo sapiens, UniProt P53350).
T10 construct: purchased DiscoveRx (KinomeScan)
The note with it: PLK1, 10 µM; read-out: score (%).

The target in assay [11] is T11, KinomeScan kinase panel (Homo sapiens, UniProt Q06187).
T11 construct: purchased DiscoveRx (KinomeScan)
The note with it: BTK, 10 µM.

Assay [12] has as its target T12, KinomeScan kinase panel (Homo sapiens, UniProt Q08345).
T12 construct: purchased DiscoveRx (KinomeScan)
The note with it: DDR1, 10 µM; read-out: score (%).

The target of assay [13] is T13, KinomeScan kinase panel (Homo sapiens, UniProt Q6DT37).
T13 construct: purchased DiscoveRx (KinomeScan)
The note with it: DMPK2, 10 µM; read-out: score (%).

In assay [14] the target is T14, KinomeScan kinase panel (Homo sapiens, UniProt Q9C098).
T14 construct: purchased DiscoveRx (KinomeScan)
The note with it: DCAMKL3, 10 µM; read-out: score (%).

The target in assay [15] is T15, KinomeScan kinase panel (Homo sapiens, UniProt Q9H1R3).
T15 construct: purchased DiscoveRx (KinomeScan)
The note with it: MYLK2, 10 µM; read-out: score (%).

Assay [16] has as its target T16, KinomeScan kinase panel (Homo sapiens, UniProt Q9NY57).
T16 construct: purchased DiscoveRx (KinomeScan)
The note with it: kinase YANK2; 10 µM; read-out: score (%).

Like-named read-outs stand apart in the source and are kept apart here. Where only a bound is given, the exact number is not on record here.

T13 sequence (Q6DT37 whole entry): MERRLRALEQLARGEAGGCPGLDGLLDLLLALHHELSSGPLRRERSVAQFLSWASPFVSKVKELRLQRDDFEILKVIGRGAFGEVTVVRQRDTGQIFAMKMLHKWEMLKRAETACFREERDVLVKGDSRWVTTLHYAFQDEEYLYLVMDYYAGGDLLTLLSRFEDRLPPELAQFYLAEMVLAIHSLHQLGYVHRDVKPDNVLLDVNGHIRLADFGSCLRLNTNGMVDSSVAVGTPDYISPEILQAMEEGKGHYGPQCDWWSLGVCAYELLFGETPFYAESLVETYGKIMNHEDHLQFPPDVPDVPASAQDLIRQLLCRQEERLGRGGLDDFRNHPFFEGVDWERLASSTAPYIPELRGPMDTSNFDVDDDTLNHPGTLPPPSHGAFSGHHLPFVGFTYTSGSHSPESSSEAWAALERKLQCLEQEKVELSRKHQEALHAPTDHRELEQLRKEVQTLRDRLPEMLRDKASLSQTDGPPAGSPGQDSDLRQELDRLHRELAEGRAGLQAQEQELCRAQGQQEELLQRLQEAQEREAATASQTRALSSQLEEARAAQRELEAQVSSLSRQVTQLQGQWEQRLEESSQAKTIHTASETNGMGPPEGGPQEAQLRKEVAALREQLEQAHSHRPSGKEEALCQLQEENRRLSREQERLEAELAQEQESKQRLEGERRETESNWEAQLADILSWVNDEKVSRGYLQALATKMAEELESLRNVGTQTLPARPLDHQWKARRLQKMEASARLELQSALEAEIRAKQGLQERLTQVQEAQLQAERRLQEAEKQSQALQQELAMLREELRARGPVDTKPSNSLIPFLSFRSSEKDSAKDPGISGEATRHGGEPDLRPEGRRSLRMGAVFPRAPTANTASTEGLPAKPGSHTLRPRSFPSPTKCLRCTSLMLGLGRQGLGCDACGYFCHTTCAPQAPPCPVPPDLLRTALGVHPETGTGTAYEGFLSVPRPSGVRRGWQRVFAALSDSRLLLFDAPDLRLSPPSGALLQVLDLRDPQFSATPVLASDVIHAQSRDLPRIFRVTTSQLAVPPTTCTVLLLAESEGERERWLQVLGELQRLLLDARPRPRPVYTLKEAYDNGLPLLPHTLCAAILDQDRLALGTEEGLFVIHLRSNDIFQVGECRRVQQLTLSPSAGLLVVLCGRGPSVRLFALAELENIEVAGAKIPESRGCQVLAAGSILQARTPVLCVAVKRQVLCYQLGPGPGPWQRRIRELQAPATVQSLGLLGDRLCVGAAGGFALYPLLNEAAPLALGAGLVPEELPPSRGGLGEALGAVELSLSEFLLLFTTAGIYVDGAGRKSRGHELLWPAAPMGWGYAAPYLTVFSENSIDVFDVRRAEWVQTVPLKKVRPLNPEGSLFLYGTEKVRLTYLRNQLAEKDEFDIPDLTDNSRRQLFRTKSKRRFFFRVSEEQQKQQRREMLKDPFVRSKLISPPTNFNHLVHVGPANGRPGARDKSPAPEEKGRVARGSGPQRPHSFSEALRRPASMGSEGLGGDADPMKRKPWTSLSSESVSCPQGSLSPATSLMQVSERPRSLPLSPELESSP
T11 sequence (Q06187 whole entry): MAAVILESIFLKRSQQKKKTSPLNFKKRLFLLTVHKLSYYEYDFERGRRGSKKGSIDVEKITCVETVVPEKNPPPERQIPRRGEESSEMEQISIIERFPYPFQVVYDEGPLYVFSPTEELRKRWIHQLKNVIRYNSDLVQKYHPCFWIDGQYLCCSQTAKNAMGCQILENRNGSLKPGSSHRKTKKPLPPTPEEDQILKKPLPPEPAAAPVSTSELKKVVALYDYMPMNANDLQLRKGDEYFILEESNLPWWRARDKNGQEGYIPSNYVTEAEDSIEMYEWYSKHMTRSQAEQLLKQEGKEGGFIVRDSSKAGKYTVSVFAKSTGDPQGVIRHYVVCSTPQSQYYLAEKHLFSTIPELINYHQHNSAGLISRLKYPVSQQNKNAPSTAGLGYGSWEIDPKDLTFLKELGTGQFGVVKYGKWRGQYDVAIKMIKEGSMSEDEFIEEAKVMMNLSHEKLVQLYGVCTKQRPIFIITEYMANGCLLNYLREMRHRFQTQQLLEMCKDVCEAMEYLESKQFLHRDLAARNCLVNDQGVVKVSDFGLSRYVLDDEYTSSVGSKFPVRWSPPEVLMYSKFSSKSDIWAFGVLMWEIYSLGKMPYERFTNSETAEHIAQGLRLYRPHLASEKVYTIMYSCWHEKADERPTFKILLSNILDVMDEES
T16 sequence (Q9NY57 whole entry): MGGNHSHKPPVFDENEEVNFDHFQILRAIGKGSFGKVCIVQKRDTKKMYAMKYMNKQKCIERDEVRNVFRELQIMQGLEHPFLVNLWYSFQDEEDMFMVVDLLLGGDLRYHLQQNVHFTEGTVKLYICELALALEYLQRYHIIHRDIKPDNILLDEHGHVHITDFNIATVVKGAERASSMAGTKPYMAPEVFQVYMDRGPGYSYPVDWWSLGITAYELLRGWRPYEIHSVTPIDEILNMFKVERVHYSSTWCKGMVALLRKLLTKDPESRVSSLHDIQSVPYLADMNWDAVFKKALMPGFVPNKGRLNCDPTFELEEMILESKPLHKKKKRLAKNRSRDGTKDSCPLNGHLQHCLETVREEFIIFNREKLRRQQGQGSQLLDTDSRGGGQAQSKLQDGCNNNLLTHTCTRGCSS
T7 sequence (P29376 17-864): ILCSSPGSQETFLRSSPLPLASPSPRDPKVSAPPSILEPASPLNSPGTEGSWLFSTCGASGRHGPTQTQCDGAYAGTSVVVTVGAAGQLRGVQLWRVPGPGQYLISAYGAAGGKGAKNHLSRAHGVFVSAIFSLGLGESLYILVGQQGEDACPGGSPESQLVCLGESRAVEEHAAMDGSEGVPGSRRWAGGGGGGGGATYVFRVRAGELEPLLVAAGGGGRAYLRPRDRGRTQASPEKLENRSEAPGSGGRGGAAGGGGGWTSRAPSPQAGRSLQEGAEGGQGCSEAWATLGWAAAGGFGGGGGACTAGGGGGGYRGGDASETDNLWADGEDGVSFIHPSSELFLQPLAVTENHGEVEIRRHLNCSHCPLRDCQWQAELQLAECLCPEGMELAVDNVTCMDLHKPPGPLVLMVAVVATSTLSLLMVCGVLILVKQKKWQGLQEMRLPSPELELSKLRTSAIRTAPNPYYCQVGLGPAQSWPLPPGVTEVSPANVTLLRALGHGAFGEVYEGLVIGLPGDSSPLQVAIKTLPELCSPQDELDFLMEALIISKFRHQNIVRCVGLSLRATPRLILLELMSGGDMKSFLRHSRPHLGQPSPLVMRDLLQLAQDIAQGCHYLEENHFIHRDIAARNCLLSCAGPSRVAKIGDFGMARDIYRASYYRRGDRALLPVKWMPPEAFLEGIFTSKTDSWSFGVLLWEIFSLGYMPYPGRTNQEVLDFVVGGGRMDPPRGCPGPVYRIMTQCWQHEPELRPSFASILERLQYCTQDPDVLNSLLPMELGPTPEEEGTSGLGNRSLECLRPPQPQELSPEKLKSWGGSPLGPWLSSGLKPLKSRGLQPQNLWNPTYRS
T3 sequence (P06213 28-1382): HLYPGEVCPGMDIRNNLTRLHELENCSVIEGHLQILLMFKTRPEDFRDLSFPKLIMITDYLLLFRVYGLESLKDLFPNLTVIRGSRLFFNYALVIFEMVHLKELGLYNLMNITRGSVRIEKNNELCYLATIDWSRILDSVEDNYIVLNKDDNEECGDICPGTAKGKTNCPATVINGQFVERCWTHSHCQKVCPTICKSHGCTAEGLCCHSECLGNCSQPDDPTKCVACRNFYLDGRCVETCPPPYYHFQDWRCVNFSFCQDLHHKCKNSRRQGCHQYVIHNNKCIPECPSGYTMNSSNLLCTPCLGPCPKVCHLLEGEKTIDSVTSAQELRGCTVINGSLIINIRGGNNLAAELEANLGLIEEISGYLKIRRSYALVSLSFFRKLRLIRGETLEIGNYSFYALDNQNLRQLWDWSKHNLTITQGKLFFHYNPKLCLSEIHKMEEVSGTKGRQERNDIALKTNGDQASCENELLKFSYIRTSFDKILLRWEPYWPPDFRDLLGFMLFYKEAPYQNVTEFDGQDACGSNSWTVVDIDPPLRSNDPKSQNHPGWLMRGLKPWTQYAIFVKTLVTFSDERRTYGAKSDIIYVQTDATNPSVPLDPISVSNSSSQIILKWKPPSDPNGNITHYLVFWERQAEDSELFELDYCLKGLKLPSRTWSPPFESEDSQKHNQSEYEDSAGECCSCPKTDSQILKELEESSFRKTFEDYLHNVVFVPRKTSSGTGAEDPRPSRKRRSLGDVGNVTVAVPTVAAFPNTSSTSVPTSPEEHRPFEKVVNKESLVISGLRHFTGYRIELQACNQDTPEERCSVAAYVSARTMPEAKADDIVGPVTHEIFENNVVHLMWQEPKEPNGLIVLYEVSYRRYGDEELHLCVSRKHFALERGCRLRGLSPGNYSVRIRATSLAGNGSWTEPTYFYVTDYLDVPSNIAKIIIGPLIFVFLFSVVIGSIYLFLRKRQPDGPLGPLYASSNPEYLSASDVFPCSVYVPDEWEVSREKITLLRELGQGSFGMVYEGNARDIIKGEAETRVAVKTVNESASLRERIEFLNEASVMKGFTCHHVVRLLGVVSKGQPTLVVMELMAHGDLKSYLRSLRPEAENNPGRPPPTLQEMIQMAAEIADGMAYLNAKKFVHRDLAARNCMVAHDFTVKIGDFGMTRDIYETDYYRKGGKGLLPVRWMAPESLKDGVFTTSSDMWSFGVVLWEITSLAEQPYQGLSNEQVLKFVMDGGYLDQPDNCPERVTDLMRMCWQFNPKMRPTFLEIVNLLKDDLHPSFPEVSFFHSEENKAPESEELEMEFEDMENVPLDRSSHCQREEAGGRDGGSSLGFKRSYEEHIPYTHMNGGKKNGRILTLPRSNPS

Take `CCN1CCN(Cc2ccc(NC(=O)c3ccc(C)c(NC(=O)c4cncc(-c5cccs5)c4)c3)cc2C(F)(F)F)CC1` [ALW-II-41-27]: the “score (%)” value is recorded as “nb (Hits values higher than 30% were considered negative (no binding: nb))” at KinomeScan kinase panel [1] and 0.1% on KinomeScan kinase panel [11]. Further, the remaining binding at 10 µM at KinomeScan kinase panel [2] (ROCK2, 10 µM) was 18%; on KinomeScan kinase panel [3], 12%; on KinomeScan kinase panel [4], 0.1%; at KinomeScan kinase panel [5] it was greater than 30%; at KinomeScan kinase panel [6], 3.8%; at KinomeScan kinase panel [7], greater than 30%. For the same compound, the remaining binding at 10 µM at KinomeScan kinase panel [8] is greater than 30%; at KinomeScan kinase panel [9], 1.1%; at KinomeScan kinase panel [10], greater than 30%; at KinomeScan kinase panel [12], 0.15%; on KinomeScan kinase panel [13], greater than 30%; on KinomeScan kinase panel [14] it was greater than 30%. Also, the remaining binding at 10 µM on KinomeScan kinase panel [15] and on KinomeScan kinase panel [16] was greater than 30% throughout.

For the compound `CCN1CCN(Cc2ccc(NC(=O)c3ccc(C)c(/C=C/c4cnc5[nH]ccc5c4Cl)c3)cc2C(F)(F)F)CC1` [HG-6-63-01, (E)-3-(2-(4-chloro-1H-pyrrolo[2,3-b]pyridin-5-yl)vinyl)-N-(4-((4-ethylpiperazin-1-yl)methyl)-3-(trifluoromethyl)phenyl)-4-methylbenzamide], the results for the “score (%)” value on KinomeScan kinase panel [1] and at KinomeScan kinase panel [11] were “nb (Hits values higher than 30% were considered negative (no binding: nb))” and 3.8%, respectively. The remaining binding at 10 µM at KinomeScan kinase panel [2] (ROCK2, 10 µM) was greater than 30%; on KinomeScan kinase panel [3], greater than 30%; on KinomeScan kinase panel [4], 0.25%; at KinomeScan kinase panel [5] it was greater than 30%; at KinomeScan kinase panel [6], 5.5%; at KinomeScan kinase panel [7], greater than 30%. Also, the remaining binding at 10 µM at KinomeScan kinase panel [8] is greater than 30%; on KinomeScan kinase panel [9], 27%; on KinomeScan kinase panel [10], greater than 30%; at KinomeScan kinase panel [12], 0.1%; at KinomeScan kinase panel [13] it was 14%; on KinomeScan kinase panel [14], 2.5%. Further, the results for the remaining binding at 10 µM on KinomeScan kinase panel [15] and on KinomeScan kinase panel [16] were 0.25% and greater than 30%, respectively.

Regarding `CCN1CCN(Cc2ccc(NC(=O)c3ccc(C)c(C#Cc4cccnc4)c3)cc2C(F)(F)F)CC1` [XMD15-44], the “score (%)” value is on record as “nb (Hits values higher than 30% were considered negative (no binding: nb))” at KinomeScan kinase panel [1] and 2% on KinomeScan kinase panel [11]. For the same compound, the remaining binding at 10 µM is 19% on KinomeScan kinase panel [2] (kinase ROCK2, 10 µM); greater than 30% on KinomeScan kinase panel [3]; 0.05% on KinomeScan kinase panel [4]; greater than 30% on KinomeScan kinase panel [5]; 1.2% at KinomeScan kinase panel [6]; 4.5% at KinomeScan kinase panel [7]. Moreover, the remaining binding at 10 µM on KinomeScan kinase panel [8] was 16%; at KinomeScan kinase panel [9] it was 3.9%; on KinomeScan kinase panel [10], 58%; on KinomeScan kinase panel [12] it was 0.05%; at KinomeScan kinase panel [13] it was greater than 30%; on KinomeScan kinase panel [14], greater than 30%. The remaining binding at 10 µM at KinomeScan kinase panel [15] stood at 3.4%; on KinomeScan kinase panel [16] it was 100%.

(Values after paper PMC4457528, “Identification of Novel Small Molecule Inhibitors of Oncogenic RET Kinase” (PLoS ONE, 2015).)
